Measured values: patent US7109244B2, “Compositions and methods comprising long-chain, straight-chain 2-amino-3-hydroxyalkanes” (priority 1997, dated 2006)
pIC50: −log10 of the molar value. Like-named read-outs stand apart in the source and are kept apart here.

Experiments:
[1] = test system: L1210 murine lymphocytic leukemia cells; assay: L1210 cytotoxicity assay (inhibition of growth); type: cell-based
Experimental: The morphological effect was usually measured 30–35 h after the start of the assay and again about 24 h later, while the cytotoxicity was determined when the number of cells in the controls reached approximately 8000, usually in 3 days after the assay was begun. It should be noted that the pointed cells were live cells and that they were counted as such for the cytotoxicity reading. […] All morphologically-changed cells were counted in the pointed cell percentage.
Cytotoxicity assays against L1210 murine lymphocytic leukemia cells were performed by dissolving the samples in methanol and/or hexane were applied to the dry assay wells and the solvent was allowed to evaporate. Cells (1000) were added in minimum essential medium (MEM, 1 ml) and incubated 37° C. Inhibition of growth was recorded as the estimated percentage of living cells in sample wells versus that in control wells.

P-388 = assay: in vitro tumor cell line activity, P-388; type: cell-based
HT-29 [2] = assay: in vitro tumor cell line activity, HT-29; type: cell-based
Vero cells [3] = assay: microfilament and microtubule staining in Vero cells (Example B); type: cell-based; conditions: 0.5 mM, 4 hours
Experimental: In order to identify the organization of the microfilament and microtubule organization in cells treated with spisulosine 285, cells were stained with phalloidin to detect actin polymers, and an antitubulin antibody to detect tubulin.
Vero cells were incubated in the presence (panel b, d) or absence (a, c) of 0.5 mM spisulosine 285 for 4 hours. Cells grown in coverslips were fixed with methanol at −20° C. (for tubulin antibody) or with 4% paraformaldehyde in phosphate buffered saline PBS (w/v) for phalloidin incubation. In the second case the cells were washed with 0.2% Triton X100 in PBS. The coverslips were washed with PBS and incubated for 1 hour at room temperature with the tubulin antibody (diluted 1/1000 in PBS) or with phalloidin (1 mg/ml). After washing with PBS the coverslips incubated with the tubulin antibody were overlaid with fluorescein or Texas red-labelled goat antimouse antibodies (diluted 1:50 in PBS). The coverslips were mounted with Mowiol and stored in the dark at 4° C. until observation.

Rho protein = Rho protein electrophoresis / Western blot and subcellular fractionation (Example C); type: cell-based; conditions: 0.5 mM, 20 hour
Experimental: The small GTP binding protein Rho is involved in the formation of actin-myosin “stress fibers” (Hall, A., Science, 279, 1998, p 509–514). Therefore, the electrophoretic mobility and cellular distribution of Rho was analyzed in cells treated with spisulosine 285.
FIG. 5 is an electrophoretogram of Example C. In panel A, equivalent amounts of protein from a cell extract from untreated (a) or from 0.5 mM spisulosine 285 treated (20 hour) cells (b) were fractionated by gel electrophoresis and blotted onto nitrocellulose paper to analyze the amount of the Rho protein.
In panel B the experiment was carried out as above, except that the homogenate was fractionated into a particulate (membrane, “M”) fraction and soluble (“S”) fraction.
Subcellular fractionation was carried out by placing cells in a hypotonic buffer (0.25 M sucrose, 20 mM HEPES pH 7.4, 2 mM EDTA, 1 mM PMSF, […] aprotinin, leupeptine and pestatine), and lysing them with a Dounce. The homogenate was first centrifuged at 750 g for 5 minutes to remove nuclei and unbroken cells, and the supernatant was further centrifuged at 30,000 g for 1 hour (4° C.) to isolate a pelleted particulate fraction (putative membrane fraction) and a supernatant. The different fractions were characterised by electrophoresis and Western Blotting using an antibody against the Rho protein.

Vero cells [4] = assay: effect of LPA on the action of spisulosine 285 in Vero cells (Example D); type: cell-based; conditions: spisulosine alone, 24 hours
From the text: LPA is known to increase the level of stress fibers in cells by activation of the Rho protein. The effect of LPA on cells treated with spisulosine 285, and untreated cells was examined. […]

[5] = test system: human renal cancer (MRI-H-121); assay: xenograft model of human renal cancer; type: in vivo; conditions: for % T/C / Comments: intraperitoneal
Experimental: Spisulosine 285 was tested in in vivo studies against xenograft models of human prostate cancer (PC-3) and human renal cancer (MRI-H-121). These models use subcutaneously implanted solid human tumors that grow and increase in volume over time. The mean volume of tumor growth in control animals provides the basis for comparison. […] A level of activity that is less than 40% T/C is considered statistically significant. The doses of spisulosine used were given at the maximum tolerated, non lethal dose (MTD), ½ MTD and ¼ MTD. Delivery of the drug was by the intraperitoneal route.

HT-29 [6] = assay: expanded in vitro screen, HT-29; type: cell-based; conditions: Homo sapiens; HT-29, Colon, solid
Experimental: (§1) An expanded in vitro screen was performed of spisulosine 285 against a series of different cell lines.

786-0 = assay: expanded in vitro screen, 786-0; type: cell-based; conditions: Homo sapiens; 786-0, Renal, solid
Experimental: as §1

FADU = assay: expanded in vitro screen, FADU; type: cell-based; conditions: Homo sapiens, Pharnynx, solid
Experimental: as §1

Hs 746T = assay: expanded in vitro screen, Hs 746T; type: cell-based; conditions: Homo sapiens, Hs746T, Stomach, solid
Experimental: as §1

SK-OV-3 = assay: expanded in vitro screen, SK-OV-3; type: cell-based; conditions: Homo sapiens; SK-OV-3, Ovary, solid
Experimental: as §1

MX-1 = assay: expanded in vitro screen, MX-1; type: cell-based; conditions: Homo sapiens, MX1; MX-1, Mammary, solid
Experimental: as §1

P3HR1 = assay: expanded in vitro screen, P3HR1; type: cell-based; conditions: Homo sapiens, P3HR-1; P3HR1, Burkitts
Experimental: as §1

U-937 = assay: expanded in vitro screen, U-937; type: cell-based; conditions: Homo sapiens; U-937, Lymphoma
Experimental: as §1

HL60 = assay: expanded in vitro screen, HL60; type: cell-based; conditions: Homo sapiens, HL-60; HL60, Leukemia
Experimental: as §1

ARH77 = assay: expanded in vitro screen, ARH77; type: cell-based; conditions: Homo sapiens, ARH-77; ARH77, Leukemia
Experimental: as §1

K562 = assay: expanded in vitro screen, K562; type: cell-based; conditions: Homo sapiens; K562, Leukemia
Experimental: as §1

CCRF-SB = assay: expanded in vitro screen, CCRF-SB; type: cell-based; conditions: Homo sapiens, Leukemia
Experimental: as §1

## CCCCCCCCCCCCCCC[C@@H](O)[C@H](C)N [Spisulosine 285, (2S,3R)-2-Amino-3-octadecanol]
[1]; Mus musculus, L1210, 0.01 μg/ml
  cytotoxicity at 0.01 µg/mL: 45%
[1]; Mus musculus, L1210, 0.025 μg/ml
  cytotoxicity at […]: 90%
[1]; Mus musculus, L1210, 0.05 μg/ml
  cytotoxicity at 0.05 µg/mL: 96%
[1]; Mus musculus, L1210, 0.1 μg/ml
  cytotoxicity at 0.1 µg/mL: 99%
[1]; Mus musculus, L1210, 0.1 μg/ml, read-out: % Inhibitiion
  inhibition at 0.1 µg/mL: 63%
[1]; Mus musculus, L1210, 0.25 μg/ml
  cytotoxicity at […]: 99%
[1]; Mus musculus, L1210, 0.25 μg/ml, read-out: % Inhibitiion
  inhibition at […]: 96%
[1]; Mus musculus, L1210, 0.5 μg/ml
  cytotoxicity at 0.5 µg/mL: 100%
[1]; Mus musculus, L1210, 0.5 μg/ml, read-out: % Inhibitiion
  inhibition at 0.5 µg/mL: 99%
[1]; Mus musculus, L1210, 1 μg/ml, read-out: % Inhibitiion
  inhibition at 1 µg/mL: 100%
[1]; Mus musculus, L1210, 2.5 μg/ml, read-out: % Inhibitiion
  inhibition at […]: 100%
[1]; Mus musculus, L1210, 5 μg/ml, read-out: % Inhibitiion
  inhibition at 5 µg/mL: 100%
[1]; listed as 1
  L1210 cytotoxicity (in words): showed both cytotoxicity and morphological alteration
P-388
  active against tumor cell line in vitro (concentration): 0.01 mg/mL
HT-29 [2]
  active against tumor cell line in vitro (concentration): 0.05 mg/mL
Vero cells [3]
  actin (phalloidin stain): dramatic decrease in actin
  microtubule network (tubulin antibody): remains in a polymerised form
Rho protein
  amount or mobility of Rho: No significant change
  proportion of Rho associated with the particulate fraction: decrease
Vero cells [4]
  cell morphology: appearance of rounded cells
[5]; effects continuing up to a few weeks after the last dose
  effect on tumour growth (in words): reduces the growth of the human renal cancer
[5]; total dose 2.499 mg/kg, day 15
  % T/C: 43%
[5]; total dose 5.010 mg/kg, day 11
  % T/C: 35%
  Comments: inhibition (partial
[5]; total dose 9.990 mg/kg, day 11
  % T/C: 28%
  Comments: inhibition (partial
HT-29 [6]
  pIC50: 11.59
786-0
  pIC50: 11.56
FADU
  pIC50: 11.30
Hs 746T
  pIC50: 11.10
SK-OV-3
  pIC50: 10.85
MX-1
  pIC50: 10.41
P3HR1
  pIC50: 10.17
U-937
  pIC50: 10.71
HL60
  pIC50: 11.07
ARH77
  pIC50: 10.87
K562
  pIC50: 10.80
CCRF-SB
  pIC50: 8.98
